Values belong to the compound of their own block, whether it stands above or below them.
Experiments:
Assay in all cases: radiometric filter-binding kinase assay, Kinase HotSpot
Conditions in all cases: compound 0.5 µM; ATP 10 µM
EGFR (human) = EGFR (human) (UniProt P00533)
CSNK1G3 (human) = CSNK1G3 (human) (UniProt Q9Y6M4)
PRKCZ (human) = PRKCZ (human) (UniProt Q05513)
NEK6 (human) = NEK6 (human) (UniProt Q9HC98)
CAMK2D (human) = CAMK2D (human) (UniProt Q13557)
SRMS (human) = SRMS (human) (UniProt Q9H3Y6)
TGFBR2 (human) = TGFBR2 (human) (UniProt P37173)
NUAK1 (human) = NUAK1 (human) (UniProt O60285)
CAMKK2 (human) = CAMKK2 (human) (UniProt Q96RR4)
LCK (human) = LCK (human) (UniProt P06239)
MAPKAPK5 (human) = MAPKAPK5 (human) (UniProt Q8IW41)
PRKACG (human) = PRKACG (human) (UniProt P22612)
STK38 (human) = STK38 (human) (UniProt Q15208)
AURKC (human) = AURKC (human) (UniProt Q9UQB9)
FGFR1 (human) = FGFR1 (human) (UniProt P11362)
FGR (human) = FGR (human) (UniProt P09769)
PKN1 (human) = PKN1 (human) (UniProt Q16512)
WEE1 (human) = WEE1 (human) (UniProt P30291)
CDK1 CCNB1 (human) = CDK1 CCNB1 (human) (UniProt P06493+P14635)
ULK2 (human) = ULK2 (human) (UniProt Q8IYT8)
EPHA6 (human) = EPHA6 (human) (UniProt Q9UF33)
CLK4 (human) = CLK4 (human) (UniProt Q9HAZ1)
ULK1 (human) = ULK1 (human) (UniProt O75385)
MYO3B (human) = MYO3B (human) (UniProt Q8WXR4)
ABL2 (human) = ABL2 (human) (UniProt P42684)
PDGFRB (human) = PDGFRB (human) (UniProt P09619)
CHEK2 (human) = CHEK2 (human) (UniProt O96017)
MYLK2 (human) = MYLK2 (human) (UniProt Q9H1R3)
MAP2K1 (human) = MAP2K1 (human) (UniProt Q02750)
ITK (human) = ITK (human) (UniProt Q08881)
MST1R (human) = MST1R (human) (UniProt Q04912)
TLK2 (human) = TLK2 (human) (UniProt Q86UE8)
PRKCB1 (human) = PRKCB1 (human) (UniProt P05771)
LIMK1 (human) = LIMK1 (human) (UniProt P53667)
EPHA3 (human) = EPHA3 (human) (UniProt P29320)
IGF1R (human) = IGF1R (human) (UniProt P08069)
IRAK4 (human) = IRAK4 (human) (UniProt Q9NWZ3)
HIPK4 (human) = HIPK4 (human) (UniProt Q8NE63)
RPS6KB2 (human) = RPS6KB2 (human) (UniProt Q9UBS0)
ULK3 (human) = ULK3 (human) (UniProt Q6PHR2)
DAPK2 (human) = DAPK2 (human) (UniProt Q9UIK4)
BRAF (human) = BRAF (human) (UniProt P15056)

Sequence of TLK2 (human) (Q86UE8 whole entry, looked up): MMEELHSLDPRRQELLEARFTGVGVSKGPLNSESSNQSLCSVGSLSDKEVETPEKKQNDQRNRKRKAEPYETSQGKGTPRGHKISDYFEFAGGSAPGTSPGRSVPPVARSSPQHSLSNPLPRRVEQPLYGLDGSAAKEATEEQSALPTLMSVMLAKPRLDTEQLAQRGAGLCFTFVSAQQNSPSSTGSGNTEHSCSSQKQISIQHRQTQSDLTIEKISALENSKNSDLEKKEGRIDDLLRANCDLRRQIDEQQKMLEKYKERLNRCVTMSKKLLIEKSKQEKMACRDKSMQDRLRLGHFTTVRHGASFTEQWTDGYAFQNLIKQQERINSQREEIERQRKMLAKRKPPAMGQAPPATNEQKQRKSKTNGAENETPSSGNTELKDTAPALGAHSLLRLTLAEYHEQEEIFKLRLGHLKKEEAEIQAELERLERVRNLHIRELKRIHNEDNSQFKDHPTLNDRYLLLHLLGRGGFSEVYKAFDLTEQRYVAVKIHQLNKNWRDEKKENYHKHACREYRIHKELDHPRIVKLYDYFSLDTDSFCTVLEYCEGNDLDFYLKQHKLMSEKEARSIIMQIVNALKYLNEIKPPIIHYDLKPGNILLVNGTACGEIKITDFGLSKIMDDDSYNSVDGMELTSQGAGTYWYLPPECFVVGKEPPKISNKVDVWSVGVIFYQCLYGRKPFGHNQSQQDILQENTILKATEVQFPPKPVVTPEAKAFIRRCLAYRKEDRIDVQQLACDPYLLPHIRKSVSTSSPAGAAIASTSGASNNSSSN
Sequence of TGFBR2 (human) (P37173 whole entry, looked up): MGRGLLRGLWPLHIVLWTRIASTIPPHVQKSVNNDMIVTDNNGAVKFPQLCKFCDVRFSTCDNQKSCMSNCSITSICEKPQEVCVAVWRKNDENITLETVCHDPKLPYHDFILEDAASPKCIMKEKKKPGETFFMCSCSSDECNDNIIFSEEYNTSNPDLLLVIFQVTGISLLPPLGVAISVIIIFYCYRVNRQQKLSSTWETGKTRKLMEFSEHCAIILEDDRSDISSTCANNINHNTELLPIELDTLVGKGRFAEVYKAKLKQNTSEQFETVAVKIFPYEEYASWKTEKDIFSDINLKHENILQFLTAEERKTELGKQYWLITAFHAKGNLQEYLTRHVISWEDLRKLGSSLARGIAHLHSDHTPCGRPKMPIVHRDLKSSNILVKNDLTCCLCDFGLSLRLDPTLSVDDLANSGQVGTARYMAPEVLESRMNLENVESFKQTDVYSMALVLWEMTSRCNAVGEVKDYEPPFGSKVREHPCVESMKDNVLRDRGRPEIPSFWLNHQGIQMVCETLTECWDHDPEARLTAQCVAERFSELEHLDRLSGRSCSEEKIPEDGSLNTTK
Sequence of IGF1R (human) (P08069 whole entry, looked up): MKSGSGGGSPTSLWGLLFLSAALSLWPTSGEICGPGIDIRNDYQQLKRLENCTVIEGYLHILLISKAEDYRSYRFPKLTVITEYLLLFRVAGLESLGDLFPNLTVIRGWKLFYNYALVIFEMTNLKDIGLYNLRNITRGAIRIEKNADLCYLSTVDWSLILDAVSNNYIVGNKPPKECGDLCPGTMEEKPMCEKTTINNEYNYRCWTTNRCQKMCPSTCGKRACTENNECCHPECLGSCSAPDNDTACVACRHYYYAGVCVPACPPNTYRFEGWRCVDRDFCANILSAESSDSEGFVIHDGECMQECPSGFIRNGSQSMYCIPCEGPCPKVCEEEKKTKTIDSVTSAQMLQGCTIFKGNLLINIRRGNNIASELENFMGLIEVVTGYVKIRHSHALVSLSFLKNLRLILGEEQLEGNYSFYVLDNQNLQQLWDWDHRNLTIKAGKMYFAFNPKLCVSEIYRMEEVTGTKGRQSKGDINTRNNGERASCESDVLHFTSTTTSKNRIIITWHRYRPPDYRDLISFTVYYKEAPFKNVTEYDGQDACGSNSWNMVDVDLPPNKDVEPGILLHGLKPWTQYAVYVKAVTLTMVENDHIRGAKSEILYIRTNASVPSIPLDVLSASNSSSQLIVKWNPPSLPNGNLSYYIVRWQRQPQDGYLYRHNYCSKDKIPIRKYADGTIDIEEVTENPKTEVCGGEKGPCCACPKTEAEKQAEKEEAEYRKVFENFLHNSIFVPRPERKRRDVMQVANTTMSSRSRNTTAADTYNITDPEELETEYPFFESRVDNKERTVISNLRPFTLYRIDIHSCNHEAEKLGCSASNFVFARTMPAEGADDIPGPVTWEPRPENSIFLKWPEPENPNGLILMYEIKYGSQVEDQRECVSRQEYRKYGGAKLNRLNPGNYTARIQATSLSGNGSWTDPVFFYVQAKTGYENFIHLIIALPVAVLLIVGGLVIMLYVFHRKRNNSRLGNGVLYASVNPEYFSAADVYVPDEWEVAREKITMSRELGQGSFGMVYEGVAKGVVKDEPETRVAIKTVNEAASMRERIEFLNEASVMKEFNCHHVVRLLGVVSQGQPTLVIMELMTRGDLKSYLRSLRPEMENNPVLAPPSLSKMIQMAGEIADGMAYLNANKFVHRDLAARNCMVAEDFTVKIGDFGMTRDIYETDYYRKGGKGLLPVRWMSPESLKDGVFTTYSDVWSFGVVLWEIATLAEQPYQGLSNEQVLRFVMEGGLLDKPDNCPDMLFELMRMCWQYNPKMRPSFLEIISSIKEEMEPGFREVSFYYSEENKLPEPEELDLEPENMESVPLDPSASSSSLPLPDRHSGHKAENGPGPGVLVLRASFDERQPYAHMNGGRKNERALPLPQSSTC
Sequence of LCK (human) (P06239 whole entry, looked up): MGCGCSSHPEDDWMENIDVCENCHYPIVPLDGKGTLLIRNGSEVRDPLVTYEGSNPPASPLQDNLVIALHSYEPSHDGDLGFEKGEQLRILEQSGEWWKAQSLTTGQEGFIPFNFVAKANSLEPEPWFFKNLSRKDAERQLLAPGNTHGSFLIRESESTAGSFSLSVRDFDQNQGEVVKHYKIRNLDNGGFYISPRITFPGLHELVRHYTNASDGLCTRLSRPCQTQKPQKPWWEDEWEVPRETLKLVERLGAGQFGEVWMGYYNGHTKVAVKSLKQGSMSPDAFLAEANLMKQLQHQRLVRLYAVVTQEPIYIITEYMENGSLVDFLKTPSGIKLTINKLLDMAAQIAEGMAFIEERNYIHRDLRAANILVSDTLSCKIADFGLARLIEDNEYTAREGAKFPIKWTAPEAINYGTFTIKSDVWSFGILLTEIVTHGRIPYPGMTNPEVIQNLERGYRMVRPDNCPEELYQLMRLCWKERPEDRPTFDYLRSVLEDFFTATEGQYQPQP
Sequence of CDK1 CCNB1 (human) (P06493 whole entry, looked up): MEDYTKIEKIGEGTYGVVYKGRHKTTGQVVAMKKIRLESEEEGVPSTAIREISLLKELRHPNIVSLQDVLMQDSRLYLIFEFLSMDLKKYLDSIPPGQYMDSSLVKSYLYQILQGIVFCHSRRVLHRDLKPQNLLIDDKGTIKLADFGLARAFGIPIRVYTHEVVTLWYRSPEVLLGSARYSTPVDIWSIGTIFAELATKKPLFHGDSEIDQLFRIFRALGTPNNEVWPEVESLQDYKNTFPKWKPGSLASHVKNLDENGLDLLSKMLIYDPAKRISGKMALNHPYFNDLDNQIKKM
Sequence of CDK1 CCNB1 (human) (P14635 whole entry, looked up): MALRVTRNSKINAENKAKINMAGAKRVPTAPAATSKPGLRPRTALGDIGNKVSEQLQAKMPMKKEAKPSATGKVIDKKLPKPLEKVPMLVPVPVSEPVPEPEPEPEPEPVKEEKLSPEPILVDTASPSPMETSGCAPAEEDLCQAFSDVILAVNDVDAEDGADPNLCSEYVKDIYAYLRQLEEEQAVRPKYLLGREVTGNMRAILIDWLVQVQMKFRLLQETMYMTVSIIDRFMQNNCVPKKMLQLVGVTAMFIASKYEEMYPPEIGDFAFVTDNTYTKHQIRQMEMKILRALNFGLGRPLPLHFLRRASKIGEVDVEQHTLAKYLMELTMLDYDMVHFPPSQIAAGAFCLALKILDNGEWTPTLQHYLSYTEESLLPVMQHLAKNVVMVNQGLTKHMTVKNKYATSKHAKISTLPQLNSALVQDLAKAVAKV
Sequence of PRKCZ (human) (Q05513 whole entry, looked up): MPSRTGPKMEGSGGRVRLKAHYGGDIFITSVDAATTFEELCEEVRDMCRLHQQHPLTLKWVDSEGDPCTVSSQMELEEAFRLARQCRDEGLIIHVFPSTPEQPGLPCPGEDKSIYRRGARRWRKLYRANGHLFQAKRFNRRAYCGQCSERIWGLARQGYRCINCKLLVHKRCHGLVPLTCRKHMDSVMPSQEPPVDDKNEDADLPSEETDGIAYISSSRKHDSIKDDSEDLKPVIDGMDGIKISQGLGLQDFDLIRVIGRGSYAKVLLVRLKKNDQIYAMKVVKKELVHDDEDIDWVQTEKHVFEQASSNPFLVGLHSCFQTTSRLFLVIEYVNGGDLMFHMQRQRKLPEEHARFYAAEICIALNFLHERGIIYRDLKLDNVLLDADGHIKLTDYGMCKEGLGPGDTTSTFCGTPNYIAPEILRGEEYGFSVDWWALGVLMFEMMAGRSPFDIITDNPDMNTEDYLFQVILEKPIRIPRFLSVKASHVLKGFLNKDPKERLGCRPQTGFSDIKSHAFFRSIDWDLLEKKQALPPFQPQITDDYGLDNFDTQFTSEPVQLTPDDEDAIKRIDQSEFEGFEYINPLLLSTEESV
Sequence of PRKACG (human) (P22612 whole entry, looked up): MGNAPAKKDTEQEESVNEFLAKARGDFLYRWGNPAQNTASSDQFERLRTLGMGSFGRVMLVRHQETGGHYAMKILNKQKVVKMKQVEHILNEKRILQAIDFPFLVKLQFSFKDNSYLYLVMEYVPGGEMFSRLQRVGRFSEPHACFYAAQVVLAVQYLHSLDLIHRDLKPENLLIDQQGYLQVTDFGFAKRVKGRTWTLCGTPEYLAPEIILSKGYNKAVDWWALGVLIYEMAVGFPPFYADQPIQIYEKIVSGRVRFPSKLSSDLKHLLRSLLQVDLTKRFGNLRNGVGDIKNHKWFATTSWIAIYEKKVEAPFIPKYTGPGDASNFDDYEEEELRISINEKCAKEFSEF

Compound: Cn1cc(/C=C2\C(=O)Nc3ccc(S(N)(=O)=O)cc32)c2ccccc21
- residual activity (EGFR (human)): 77.5%
- residual activity (CSNK1G3 (human)): 109%
- residual activity (PRKCZ (human)): 105%
- residual activity (NEK6 (human)): 98.6%
- residual activity (CAMK2D (human)): 66.8%
- residual activity (SRMS (human)): 99.8%
- residual activity (TGFBR2 (human)): 101%
- residual activity (NUAK1 (human)): 5.88%
- residual activity (CAMKK2 (human)): 34.4%
- residual activity (LCK (human)): 57.6%
- residual activity (MAPKAPK5 (human)): 88.3%
- residual activity (PRKACG (human)): 101%
- residual activity (STK38 (human)): 53.1%
- residual activity (AURKC (human)): 37.1%
- residual activity (FGFR1 (human)): 50.2%
- residual activity (FGR (human)): 28.4%
- residual activity (PKN1 (human)): 68.9%
- residual activity (WEE1 (human)): 82.3%
- residual activity (CDK1 CCNB1 (human)): 49.6%
- residual activity (ULK2 (human)): 72.3%
- residual activity (EPHA6 (human)): 30.2%
- residual activity (CLK4 (human)): 42.6%
- residual activity (ULK1 (human)): 27.5%
- residual activity (MYO3B (human)): 74.6%
- residual activity (ABL2 (human)): 54.2%
- residual activity (PDGFRB (human)): 66%
- residual activity (CHEK2 (human)): 1.3%
- residual activity (MYLK2 (human)): 53.6%
- residual activity (MAP2K1 (human)): 63.6%
- residual activity (ITK (human)): 21.4%
- residual activity (MST1R (human)): 100%
- residual activity (TLK2 (human)): 63.2%
- residual activity (PRKCB1 (human)): 114%
- residual activity (LIMK1 (human)): 74.1%
- residual activity (EPHA3 (human)): 80.9%
- residual activity (IGF1R (human)): 87.9%
- residual activity (IRAK4 (human)): 2.98%
- residual activity (HIPK4 (human)): 86.2%
- residual activity (RPS6KB2 (human)): 94.6%
- residual activity (ULK3 (human)): 15.8%

Compound: O=C1NC(=O)c2cc(Nc3ccc(F)cc3)c(Nc3ccc(F)cc3)cc21
- residual activity (CSNK1G3 (human)): 90.7%
- residual activity (PRKCZ (human)): 100%
- residual activity (NEK6 (human)): 109%
- residual activity (CAMK2D (human)): 97.9%
- residual activity (SRMS (human)): 95.5%
- residual activity (TGFBR2 (human)): 85.2%
- residual activity (NUAK1 (human)): 94%
- residual activity (CAMKK2 (human)): 88.3%
- residual activity (LCK (human)): 98.4%
- residual activity (MAPKAPK5 (human)): 93.4%
- residual activity (PRKACG (human)): 101%
- residual activity (STK38 (human)): 85.5%
- residual activity (AURKC (human)): 90.8%
- residual activity (FGFR1 (human)): 92.1%
- residual activity (FGR (human)): 96.3%
- residual activity (PKN1 (human)): 97.7%
- residual activity (WEE1 (human)): 99.6%
- residual activity (CDK1 CCNB1 (human)): 103%
- residual activity (ULK2 (human)): 84.7%
- residual activity (DAPK2 (human)): 96.7%
- residual activity (EPHA6 (human)): 66.8%
- residual activity (CLK4 (human)): 88.6%
- residual activity (ULK1 (human)): 102%
- residual activity (MYO3B (human)): 98.2%
- residual activity (ABL2 (human)): 89.6%
- residual activity (PDGFRB (human)): 93.9%
- residual activity (CHEK2 (human)): 94.3%
- residual activity (MYLK2 (human)): 98.7%
- residual activity (MAP2K1 (human)): 103%
- residual activity (BRAF (human)): 94.2%
- residual activity (ITK (human)): 87.3%
- residual activity (MST1R (human)): 100%
- residual activity (TLK2 (human)): 93.5%
- residual activity (PRKCB1 (human)): 28.2%
- residual activity (LIMK1 (human)): 95.9%
- residual activity (EPHA3 (human)): 96.6%
- residual activity (IGF1R (human)): 102%
- residual activity (IRAK4 (human)): 98.1%
- residual activity (HIPK4 (human)): 82.5%
- residual activity (RPS6KB2 (human)): 93.9%
- residual activity (ULK3 (human)): 96.3%

Compound: O=c1c(-c2ccc(F)cc2)c(-c2ccncc2)[nH]n1-c1ccc(Cl)cc1
- residual activity (EGFR (human)): 57.7%
- residual activity (CSNK1G3 (human)): 102%
- residual activity (PRKCZ (human)): 99%
- residual activity (NEK6 (human)): 106%
- residual activity (CAMK2D (human)): 95.6%
- residual activity (SRMS (human)): 104%
- residual activity (TGFBR2 (human)): 97.7%
- residual activity (NUAK1 (human)): 89.1%
- residual activity (CAMKK2 (human)): 83%
- residual activity (LCK (human)): 101%
- residual activity (MAPKAPK5 (human)): 99.7%
- residual activity (PRKACG (human)): 91.9%
- residual activity (STK38 (human)): 93.7%
- residual activity (AURKC (human)): 100%
- residual activity (FGFR1 (human)): 93.7%
- residual activity (FGR (human)): 87.4%
- residual activity (PKN1 (human)): 92.4%
- residual activity (WEE1 (human)): 81.6%
- residual activity (DAPK2 (human)): 104%
- residual activity (EPHA6 (human)): 57%
- residual activity (CLK4 (human)): 78.9%
- residual activity (ULK1 (human)): 103%
- residual activity (MYO3B (human)): 90.7%
- residual activity (ABL2 (human)): 82.8%
- residual activity (PDGFRB (human)): 101%
- residual activity (CHEK2 (human)): 91.4%
- residual activity (MYLK2 (human)): 101%
- residual activity (MAP2K1 (human)): 70.1%
- residual activity (ITK (human)): 79.7%
- residual activity (MST1R (human)): 95%
- residual activity (TLK2 (human)): 109%
- residual activity (PRKCB1 (human)): 84.7%
- residual activity (LIMK1 (human)): 91.5%
- residual activity (EPHA3 (human)): 84.4%
- residual activity (IGF1R (human)): 92.8%
- residual activity (IRAK4 (human)): 81.9%
- residual activity (HIPK4 (human)): 94.6%
- residual activity (RPS6KB2 (human)): 95.5%
- residual activity (ULK3 (human)): 94.3%

- residual activity (CSNK1G3 (human)): 87.1%
- residual activity (PRKCZ (human)): 102%
- residual activity (NEK6 (human)): 101%
- residual activity (CAMK2D (human)): 89.3%
- residual activity (SRMS (human)): 106%
- residual activity (TGFBR2 (human)): 102%
- residual activity (NUAK1 (human)): 91.8%
- residual activity (CAMKK2 (human)): 80.4%
- residual activity (LCK (human)): 98.3%
- residual activity (MAPKAPK5 (human)): 98.3%
- residual activity (PRKACG (human)): 101%
- residual activity (STK38 (human)): 100%
- residual activity (AURKC (human)): 96%
- residual activity (FGFR1 (human)): 99%
- residual activity (FGR (human)): 86.1%
- residual activity (PKN1 (human)): 96.3%
- residual activity (WEE1 (human)): 88.5%
- residual activity (CDK1 CCNB1 (human)): 96.8%
- residual activity (ULK2 (human)): 116%
- residual activity (DAPK2 (human)): 119%
- residual activity (EPHA6 (human)): 87.1%
- residual activity (CLK4 (human)): 43.8%
- residual activity (ULK1 (human)): 98.5%
- residual activity (MYO3B (human)): 96.1%
- residual activity (ABL2 (human)): 98.8%
- residual activity (PDGFRB (human)): 103%
- residual activity (CHEK2 (human)): 93.9%
- residual activity (MYLK2 (human)): 92.8%
- residual activity (MAP2K1 (human)): 93.2%
- residual activity (BRAF (human)): 96.6%
- residual activity (ITK (human)): 98.8%
- residual activity (MST1R (human)): 93.5%
- residual activity (TLK2 (human)): 102%
- residual activity (PRKCB1 (human)): 90.8%
- residual activity (LIMK1 (human)): 90.2%
- residual activity (EPHA3 (human)): 75.1%
- residual activity (IGF1R (human)): 100%
- residual activity (IRAK4 (human)): 83.7%
- residual activity (HIPK4 (human)): 97.6%
- residual activity (RPS6KB2 (human)): 96.5%
- residual activity (ULK3 (human)): 99.1%
Compound: N#C/C(=C1/Nc2ccccc2S1)c1ccnc(NCCc2cccnc2)n1

Compound: COc1cc2c(cc1OC)-c1[nH]nc(Nc3cccc(F)c3)c1C2
- residual activity (CSNK1G3 (human)): 95%
- residual activity (PRKCZ (human)): 99.7%
- residual activity (NEK6 (human)): 105%
- residual activity (CAMK2D (human)): 103%
- residual activity (SRMS (human)): 99.9%
- residual activity (TGFBR2 (human)): 100%
- residual activity (NUAK1 (human)): 88.5%
- residual activity (CAMKK2 (human)): 86.8%
- residual activity (MAPKAPK5 (human)): 82.3%
- residual activity (PRKACG (human)): 102%
- residual activity (STK38 (human)): 113%
- residual activity (AURKC (human)): 94.5%
- residual activity (FGFR1 (human)): 99.2%
- residual activity (FGR (human)): 47.2%
- residual activity (PKN1 (human)): 106%
- residual activity (WEE1 (human)): 93%
- residual activity (CDK1 CCNB1 (human)): 101%
- residual activity (ULK2 (human)): 97.3%
- residual activity (DAPK2 (human)): 86.7%
- residual activity (EPHA6 (human)): 82.7%
- residual activity (CLK4 (human)): 77.7%
- residual activity (ULK1 (human)): 103%
- residual activity (MYO3B (human)): 107%
- residual activity (ABL2 (human)): 21.4%
- residual activity (PDGFRB (human)): 45.3%
- residual activity (CHEK2 (human)): 96.5%
- residual activity (MYLK2 (human)): 86.4%
- residual activity (MAP2K1 (human)): 90.1%
- residual activity (BRAF (human)): 93.8%
- residual activity (ITK (human)): 85.5%
- residual activity (MST1R (human)): 99.1%
- residual activity (TLK2 (human)): 103%
- residual activity (PRKCB1 (human)): 96%
- residual activity (LIMK1 (human)): 23.3%
- residual activity (EPHA3 (human)): 94.5%
- residual activity (IGF1R (human)): 93.9%
- residual activity (IRAK4 (human)): 70%
- residual activity (HIPK4 (human)): 90%
- residual activity (RPS6KB2 (human)): 100%
- residual activity (ULK3 (human)): 96.5%

— the kinase profiling compilation of Christmann-Franck et al. (2016)
